The values that follow are results of earlier work, collected in patent US20050273047A1, “System and method for transdermal delivery of an anticoagulant” (priority 2004, published 2005).

The series has as its target Factor Xa (Homo sapiens, UniProt P00742). As to conditions: as compared to the corresponding methyl ester; cited from earlier work.

Factor Xa, sequence (P00742 235-488 limits assumed): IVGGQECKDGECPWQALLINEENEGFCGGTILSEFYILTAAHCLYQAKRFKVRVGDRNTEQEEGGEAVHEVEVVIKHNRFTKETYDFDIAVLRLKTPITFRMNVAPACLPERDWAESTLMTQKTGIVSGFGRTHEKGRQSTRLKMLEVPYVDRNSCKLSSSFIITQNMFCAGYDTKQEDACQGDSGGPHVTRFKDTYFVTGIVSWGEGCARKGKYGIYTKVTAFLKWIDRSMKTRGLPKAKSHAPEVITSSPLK
Factor Xa, sequence (P00742 41-179 partner limits assumed): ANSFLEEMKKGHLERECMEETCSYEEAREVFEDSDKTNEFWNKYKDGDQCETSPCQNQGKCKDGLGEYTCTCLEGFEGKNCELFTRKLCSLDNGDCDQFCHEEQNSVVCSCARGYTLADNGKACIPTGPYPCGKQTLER

Consider `CC(=N)N1CC[C@H](Oc2ccc([C@H](Cc3ccc4ccc(C(=N)N)cc4c3)C(=O)O)cc2)C1` [compound shown in FIG. 7], for which the “enhancement of Factor Xa selectivity by the carboxylic acid” value is recorded as “about 100 fold”.
